Results taken from patent publication US20070219272A1, “Novel method and compositions for treatment of tinnitus” (priority 2006, published 2007).

Legend:
[1] = test system: patients with Ménière's disease; test: Randomized, double blind, placebo-controlled cross-over clinical trial: tinnitus loudness after intratympanic injection; type: in vivo, human; conditions: for Effect on tinnitus loudness: intratympanic injection; for Reduction of tinnitus loudness in decibels, Day 5: Day 5 after initiation; for Reduction of tinnitus loudness in decibels, Day 5 / Reduction of tinnitus loudness in decibels, Day 15 / Reduction of tinnitus loudness in decibels, Day 29: intratympanic once daily for 3 days, vs placebo, baseline-corrected, mean ± SEM, lithium salt 450 μg/ml, isopropyl ester 50 μg/ml; for Reduction of tinnitus loudness in decibels, Day 15: Day 15 after initiation; for Reduction of tinnitus loudness in decibels, Day 29: Day 29 after initiation
Excerpt: The invention is exemplified by the following non-limiting example based on a recently performed clinical trial: Patients suffering from unilateral Ménière's disease were enrolled in a randomized, double blind, placebo-controlled clinical trial. The study followed a cross-over protocol. The patients received an intratympanic injection (injection into the middle ear cavity) of latanoprost lithium salt or placebo once daily during the three first days of each treatment period. The effect on hearing and tinnitus loudness was measured on Days 5, 15 and 29. Thereafter there was a treatment-free cross-over period of 2 months. After the cross-over period the patient entered the second treatment period and latanoprost lithium salt or placebo was again administered by intratympanic injection once daily during the three first days, and the same measurements of hearing and tinnitus were repeated. Latanoprost lithium salt was tested at 50 μg/ml, 150 μg/ml and 450 μg/ml concentration, and in addition one group of patients received latanoprost (isopropyl ester) at 50 μg/ml concentration according to the same cross-over study protocol.

Lipophilicity comparison = type: physicochemical; conditions: ratio isopropyl ester / lithium salt
Excerpt: Although the concentration of latanoprost lithium salt was 9 times higher than the concentration of latanoprost (isopropyl ester) we believe that the main additional effect (compared with latanoprost) is based on the lithium salt because the lipophilicity of latanoprost (isopropyl ester) is more than 1000 times higher than the lipophilicity of the latanoprost lithium salt. Consequently the ester can be expected to traverse biological membranes such as the round window membrane much better than the water-soluble salt. […] The concentration of 450 μg/ml of latanoprost lithium salt corresponds to approximately 1 mM lithium, i.e. a concentration within the therapeutic range of lithium. The lower concentrations 150 μg/ml and 50 μg/ml of latanoprost lithium salt had no effect which can be anticipated if the effect on tinnitus loudness at least partly is based on the pharmacological effect of lithium since the two lower concentrations are below the therapeutic concentration range of lithium.

[2] = test system: patients suffering from Ménière's disease; conditions: cited from earlier work
[3] = man; lower ineffective, above 1.5 mM side effects may arise; cited from earlier work

SMILES | Effect on tinnitus loudness ([1]; 50 μg/ml) | Effect on tinnitus loudness ([1]; 150 μg/ml) | Reduction of tinnitus loudness in decibels, Day 5 [1] [decibels] | Reduction of tinnitus loudness in decibels, Day 15 [1] [decibels] | Reduction of tinnitus loudness in decibels, Day 29 [1] [decibels] | Lipophilicity relative to latanoprost lithium salt (Lipophilicity comparison) | Effect on hearing [2] | Effect on vertigo [2] | Effect on tinnitus ([2]; intratympanic injection) | Therapeutic plasma concentration [3] [mM]
O=C([O-])CCC/C=C\C[C@@H]1[C@@H](CC[C@@H](O)CCc2ccccc2)[C@H](O)C[C@@H]1O.[Li+] [Latanoprost acid lithium salt, latanoprost acid lithium salt] | no effect | no effect | −10.8 ± 3.5 | −15.4 ± 6.4 | −10.5 ± 3.9 |  |  |  |  | 
CC(C)OC(=O)CCC/C=C\C[C@@H]1[C@@H](CC[C@@H](O)CCc2ccccc2)[C@H](O)C[C@@H]1O [Latanoprost isopropyl ester, latanoprost] |  |  | −5.5 ± 2.7 | −9.5 ± 5.8 | −9.6 ± 4.6 | more than 1000 times | improved hearing | reduced vertigo | may reduce tinnitus | 
[Li] [Lithium, lithium] |  |  |  |  |  |  |  |  |  | 0.5 to 1.5
